US20070249670A1, “Glycogen Phosphorylase Inhibitor Compounds and Pharmaceutical Compositions Thereof” (SMITHKLINE BEECHAM CORPORATION, priority 2004, published 2007)

Target: T1, human liver glycogen phosphorylase a (HLGPa) (Homo sapiens, UniProt P06737)
T1 construct: creating a full-length cDNA fused at the 5′ end to codons for methionine-glycine-alanine-histidine; 6xHis tag (leader Met-Gly-Ala-His6-Gly-Gly) (N); made in house; host or cells: E. coli (bacterial expression plasmid pTXK1007LTev)
T1 sequence (P06737 2-847 limits assumed): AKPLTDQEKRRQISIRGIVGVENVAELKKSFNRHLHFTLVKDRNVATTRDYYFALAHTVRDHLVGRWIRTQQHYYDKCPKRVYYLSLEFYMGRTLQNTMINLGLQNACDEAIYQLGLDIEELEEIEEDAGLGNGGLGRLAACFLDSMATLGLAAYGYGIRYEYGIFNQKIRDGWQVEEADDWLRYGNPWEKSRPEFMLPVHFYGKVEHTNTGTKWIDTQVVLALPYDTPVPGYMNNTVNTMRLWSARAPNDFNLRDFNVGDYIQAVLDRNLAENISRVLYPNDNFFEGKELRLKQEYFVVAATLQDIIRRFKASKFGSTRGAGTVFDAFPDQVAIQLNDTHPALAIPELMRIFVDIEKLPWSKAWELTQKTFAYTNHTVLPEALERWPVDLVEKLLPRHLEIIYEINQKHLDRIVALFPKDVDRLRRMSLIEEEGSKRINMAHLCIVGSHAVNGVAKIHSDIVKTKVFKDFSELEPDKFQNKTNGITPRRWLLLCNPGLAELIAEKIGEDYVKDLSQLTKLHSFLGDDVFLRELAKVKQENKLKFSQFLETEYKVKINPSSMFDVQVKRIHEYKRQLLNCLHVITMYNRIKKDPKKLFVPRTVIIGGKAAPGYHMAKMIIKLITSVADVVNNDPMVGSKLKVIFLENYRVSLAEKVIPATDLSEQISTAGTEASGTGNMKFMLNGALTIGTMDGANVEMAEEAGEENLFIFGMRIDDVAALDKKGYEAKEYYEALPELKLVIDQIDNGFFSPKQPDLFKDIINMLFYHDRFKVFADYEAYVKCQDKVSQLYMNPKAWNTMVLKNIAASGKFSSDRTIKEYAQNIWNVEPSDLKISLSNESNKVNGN
Test: Human liver glycogen phosphorylase a enzymatic activity assay (coupled, fluorescent resorufin readout, with and without 10 mM glucose)
Assay type: biochemical
Conditions: human liver glycogen phosphorylase a enzymatic activity assay

IC50 [nM]	SMILES
170	O=C(Nc1sc(-c2ccc(Cl)cc2)nc1C(=O)N[C@H](C(=O)O)C1CCCCC1)Nc1c(Cl)cc(Cl)cc1Cl [Example 490, (2S)-({[2-(4-Chlorophenyl)-5-({[(2,4,6-trichlorophenyl)amino]carbonyl}amino)-1,3-thiazol-4-yl]carbonyl}amino)(cyclohexyl)ethanoic acid]
2110	Cc1cccc(C)c1NC(=O)Nc1cc2ccccc2cc1C(=O)N(C)CC(=O)O [Example 491, N-{[3-({[(2,6-dimethylphenyl)amino]carbonyl}amino)-2-naphthalenyl]carbonyl}-N-methylglycine]
7520	Cc1cccc(C)c1NC(=O)Nc1cc2ccccc2cc1C(=O)NCCCC(=O)O [Example 492, 4-({[3-({[(2,6-dimethylphenyl)amino]carbonyl}amino)-2-naphthalenyl]carbonyl}amino)butanoic acid]
9860	COC(=O)CCNC(=O)c1cc2ccccc2cc1NC(=O)Nc1c(C)cc(C)cc1C [Example 493, methyl N-{[3-({[(2,4,6-trimethylphenyl)amino]carbonyl}amino)-2-naphthalenyl]carbonyl}-beta-alaninate]
360	Cc1cc(C)c(NC(=O)Nc2cc3ccccc3cc2C(=O)NCCC(=O)O)c(C)c1 [Example 494, N-{[3-({[(2,4,6-trimethylphenyl)amino]carbonyl}amino)-2-naphthalenyl]carbonyl}-beta-alanine]
300	Cc1cc(C)c(NC(=O)Nc2cc3ccccc3cc2C(=O)Nc2cccc(C(=O)O)c2)c(C)c1 [Example 495, 3-({[3-({[(2,4,6-trimethylphenyl)amino]carbonyl}amino)-2-naphthalenyl]carbonyl}amino)benzoic acid]
17700	O=C(Nc1cc2ccccc2cc1C(=O)Nc1cscc1C(=O)O)Nc1c(Cl)cccc1Cl [Example 497, 4-({[3-({[(2,6-dichlorophenyl)amino]carbonyl}amino)-2-naphthalenyl]carbonyl}amino)-3-thiophenecarboxylic acid]
110	Cc1cc(C)c(NC(=O)Nc2cc3ccccc3cc2C(=O)Nc2cc(C(=O)O)cc(C(=O)O)c2)c(C)c1 [Example 498, 5-({[3-({[(2,4,6-trimethylphenyl)amino]carbonyl}amino)-2-naphthalenyl]carbonyl}amino)-1,3-benzenedicarboxylic acid]
2140	Cc1cccc(C)c1NC(=O)Nc1cc2ccccc2cc1C(=O)NC(C)CC(=O)O (stereo not drawn) [Example 500, 3-({[3-({[(2,6-dimethylphenyl)amino]carbonyl}amino)-2-naphthalenyl]carbonyl}amino)butanoic acid]
12	Cc1cc(C)c(NC(=O)Nc2cc3ccccc3cc2C(=O)N[C@H](C(=O)O)c2ccc(O)cc2)c(C)c1 [Example 501, (2S)-(4-hydroxyphenyl)({[3-({[(2,4,6-trimethylphenyl)amino]carbonyl}amino)-2-naphthalenyl]carbonyl}amino)ethanoic acid]
13	Cc1cc(C)c(NC(=O)Nc2cc3ccccc3cc2C(=O)N[C@H](C(=O)O)C2CCC(O)CC2)c(C)c1 (stereo partly drawn) [Example 502, (2S)-(4-hydroxycyclohexyl)({[3-({[(2,4,6-trimethylphenyl)amino]carbonyl}amino)-2-naphthalenyl]carbonyl}amino)ethanoic acid]
11100	COC(=O)[C@H](CC(=O)N(C)C)NC(=O)c1ccc(-c2ccc(OC)cc2)cc1NC(=O)Nc1c(C)cc(C)cc1C [Example 503, methyl N^4,N^4-dimethyl-N^2-{[4′-(methyloxy)-3-({[(2,4,6-trimethylphenyl)amino]carbonyl}amino)-4-biphenylyl]carbonyl}-L-asparaginate]
32	COc1ccc(-c2ccc(C(=O)N[C@@H](CC(=O)N(C)C)C(=O)O)c(NC(=O)Nc3c(C)cc(C)cc3C)c2)cc1 [Example 504, N^4,N^4-dimethyl-N^2-{[4′-(methyloxy)-3-({[(2,4,6-trimethylphenyl)amino]carbonyl}amino)-4-biphenylyl]carbonyl}-L-asparagine]
3	Cc1cc(CC2CC2)cc(C)c1NC(=O)Nc1cc(-c2cccc(F)c2)ccc1C(=O)N[C@H](C(=O)O)[C@@H](C)OC(C)(C)C [Example 505, N-({3-[({[4-(cyclopropylmethyl)-2,6-dimethylphenyl]amino}carbonyl)amino]-3′-fluoro-4-biphenylyl}carbonyl)-O-(1,1-dimethylethyl)-L-threonine]
1090	CCOC(=O)C[C@H](NC(=O)c1ccc(-c2cccc(F)c2)cc1NC(=O)Nc1c(C)cc(C)cc1C)C(=O)O [Example 506, (2S)-4-(ethyloxy)-2-({[3′-fluoro-3-({[(2,4,6-trimethylphenyl)amino]carbonyl}amino)-4-biphenylyl]carbonyl}amino)-4-oxobutanoic acid]
53	Cc1cc(C)c(NC(=O)Nc2cc(-c3cccc(F)c3)ccc2C(=O)N[C@@H](CC(=O)O)C(=O)O)c(C)c1 [Example 507, N-{[3′-fluoro-3-({[(2,4,6-trimethylphenyl)amino]carbonyl}amino)-4-biphenylyl]carbonyl}-L-aspartic acid]
28	Cc1cc(C)c(NC(=O)Nc2cc3ccccc3cc2C(=O)N[C@@H](COCc2ccccc2)C(=O)O)c(C)c1 [Example 509, O-(Phenylmethyl)-N-{[3-({[(2,4,6-trimethylphenyl)amino]carbonyl}amino)-2-naphthalenyl]carbonyl}-L-serine]
42	Cc1cc(C)c(NC(=O)Nc2cc(-c3ccc(F)c(F)c3)ccc2C(=O)N[C@@H](COCc2ccccc2)C(=O)O)c(C)c1 [Example 510, N-{[3′,4′-Difluoro-3-({[(2,4,6-trimethylphenyl)amino]carbonyl}amino)-4-biphenylyl]carbonyl}-O-(phenylmethyl)-L-serine]
7430	O=C(Nc1ccc(-c2ccccc2)cc1)Nc1cc2ccccc2cc1C(=O)NC1(C(=O)O)CCCCC1 [Example 513, 1-{[(3-{[(4-biphenylylamino)carbonyl]amino}-2-naphthalenyl)carbonyl]amino}cyclohexanecarboxylic acid]
52	Cc1cc(C)c(NC(=O)Nc2cc3ccccc3cc2C(=O)N[C@@H](Cc2ccccc2)C(=O)O)c(C)c1 [Example 514, N-{[3-({[(2,4,6-trimethylphenyl)amino]carbonyl}amino)-2-naphthalenyl]carbonyl}-L-phenylalanine]
1900	Cc1cc(C)c(NC(=O)Nc2cc(F)ccc2C(=O)N[C@@H](CCNC(=O)OC(C)(C)C)C(=O)O)c(C)c1 [Example 515, (2S)-4-({[(1,1-dimethylethyl)oxy]carbonyl}amino)-2-({[4-fluoro-2-({[(2,4,6-trimethylphenyl)amino]carbonyl}amino)phenyl]carbonyl}amino)butanoic acid]
89	Cc1cc(C)c(NC(=O)Nc2cc3ccccc3cc2C(=O)N[C@@H](CCNC(=O)OC(C)(C)C)C(=O)O)c(C)c1 [Example 516, (2S)-4-({[(1,1-dimethylethyl)oxy]carbonyl}amino)-2-({[3-({[(2,4,6-trimethylphenyl)amino]carbonyl}amino)-2-naphthalenyl]carbonyl}amino)butanoic acid]
340	Cc1cc(-c2ccccc2)cc(C)c1NC(=O)Nc1cc2ccccc2cc1C(=O)NC1(C(=O)O)CCCCCC1 [Example 518, 1-({[3-({[(3,5-dimethyl-4-biphenylyl)amino]carbonyl}amino)-2-naphthalenyl]carbonyl}amino)cycloheptanecarboxylic acid]
7	Cc1cc(C)c(NC(=O)Nc2cc(-c3ccc(F)c(F)c3)ccc2C(=O)N[C@H](C(=O)O)[C@@H](C)OC2CCC2)c(C)c1 [Example 519, O-cyclobutyl-N-{[3′,4′-difluoro-3-({[(2,4,6-trimethylphenyl)amino]carbonyl}amino)-4-biphenylyl]carbonyl}-L-threonine]
134	Cc1cc(C)c(NC(=O)Nc2cc(F)ccc2C(=O)N[C@H](C(=O)O)[C@@H](C)OCc2ccccc2)c(C)c1 [Example 521, N-{[4-fluoro-2-({[(2,4,6-trimethylphenyl)amino]carbonyl}amino)phenyl]carbonyl}-O-(phenylmethyl)-L-threonine]
675	Cc1cc(C)c(NC(=O)Nc2cc(-c3ccc(F)c(F)c3)ccc2C(=O)N[C@@H](C(=O)O)[C@H](C)OC(C)(C)C)c(C)c1 [Example 522, N-{[3′,4′-difluoro-3-({[(2,4,6-trimethylphenyl)amino]carbonyl}amino)-4-biphenylyl]carbonyl}-O-(1,1-dimethylethyl)-D-threonine]
8	COc1ccccc1-c1ccc(C(=O)N[C@H](C(=O)O)C2CCCCC2)c(NC(=O)Nc2c(C)cc(C)cc2C)c1 [Example 523, (2S)-cyclohexyl({[2′-(methyloxy)-3-({[(2,4,6-trimethylphenyl)amino]carbonyl}amino)-4-biphenylyl]carbonyl}amino)ethanoic acid]
